Test system: hiPSCs (WTC-11) differentiating to ameloblasts (iAM)
Test: AMBN expression (QRT-PCR) in hiPSC-derived ameloblast (iAM) differentiation, day 10 to day 16, factors removed or added
Assay type: cell-based, human
Details: for expression of AMBN when the factor is removed: factor removed independently from differentiation day 10 to day 16, compared to when all factors are present
Protocol: FIGS. 7A-7E: (FIG. 7A) Schematic of the 16-day differentiation protocol produced, which targets the identified signaling pathways utilizing growth factors and small molecules to transition through the ameloblast developmental trajectory. […] Each study was performed in triplicate, with error bars representing SEM. (FIG. 7C) The efficiency of each pathway activated in the differentiation from day 10 to day 16 were assessed by removing each agonist one at a time or adding FGFR2 mini binder to inhibit the FGFR2 pathway. AMBN expression was assessed in QRT-PCR, and each condition was performed in triplicate. Significance was determined by unpaired Student's t-test; ***p<0.001; ****p<0.0001; Graph error bars are the means±SEM.
To dissect which pathways were essential for the differentiation from day 10 to day 16, the process of elimination was used (FIG. 7C). […] It was hypothesized that the cells in culture secrete enough FGF ligands to saturate the receptors, and any exogenous ligands would have minimal effects. To test this hypothesis, a computationally designed protein was used, FGFR2 mini-binder (FGFR-mb), that specifically binds and inhibits the activity of the FGFR2 (Cao et al., 2022). […] This marks the importance of highly specific AI-designed mini-proteins in analyzing the requirement of signaling pathways in differentiation. It is plausible that temporal preciseness and high penetrance, combined with specificity of designed mini-binders to their targets may partially out-compete in the future genetic perturbations of signaling pathway in iPSC derived differentiation paradigms.
Briefly, hiPSCs (WTC-11 human induced pluripotent stem cells) (Coriell, #GM25256) were seeded on 12-well plates coated with growth factor-reduced Matrigel (Corning, #356231) and cultured in mTeSR1 stem cell medium (StemCell Technologies, #85850) until cells reach confluency with medium changes daily. On the first day of differentiation (deemed Day 0), stem cell media is replaced with ameloblast base media consisted of either EpiCult-C media (StemCell Technologies, #05630) or RPMI 1640 Medium (Thermo, #11875093) mixed with EpiLife (Thermo, #MEPI500CA) at 1:1 ratio, supplemented with 0.1× supplement S7 (Thermo, #S0175), 0.1 uM β-mercaptoethanol (BME) (Sigma, #M7522) and 400 um smoothened agonist (SAG) (Selleckchem, #S7779). At day 3 of differentiation 150 μM of bone morphogenic protein-4 (BMP4) (rndsystems, #314-BP-010) is continuously added daily till day 7. At day 8, the base media is supplemented with 1 uM of BMP-I inhibitor (LDN-193189) (Tocris, #6053), 5 uM of GSK3-Inhibitor (CHIR99021) (Selleckchem, #4423), 500 μM epidermal growth factor (EGF) (rndsystems, #236-EG) and 3.5 μM of Neurotrophin-4 (NT4) (rndsystems, #268-N4). The cultures were then harvested at day 10 at an oral epithelium stage, or extended to day 16 by adding 300 μM BMP4, and 800 nM transforming growth factor beta 1(TGFβ1) (rndsystems, #7754-BH) for the early ameloblast stage at day 16. For testing FGFR signaling requirement for the maturation process we added 50 nM purified FGFR-mb (see below) to the media at day 14 and harvested the samples at day 16 of the differentiation.
RNA was extracted using Trizol (Life Technologies) according to manufacturer's instructions. RNA samples were treated with Turbo DNase (Thermo Fisher Scientific) and quantified using Nanodrop ND-1000. Reverse transcription was performed using iScript cDNA Synthesis Kit (Bio-Rad). […]

Compound	AMBN expression on adding bFGF (bFGF added to differentiation day 10 to day 16)	expression of AMBN when the factor is removed
bFGF: exogenous FGF ligand added to the differentiation	no significant effect	
Cc1cnc(-c2cnc(NCCNc3ccc(C#N)cn3)nc2-c2ccc(Cl)cc2Cl)[nH]1 [GSKi, 6-[[2-[[4-(2,4-dichlorophenyl)-5-(5-methyl-1H-imidazol-2-yl)-2-pyrimidinyl]amino]ethyl]amino]-3-pyridinecarbonitrile, reference compound]		completely abolished AMBN expression
CN[C@H]1CC[C@H](N(Cc2cccc(-c3ccncc3)c2)C(=O)c2sc3ccccc3c2Cl)CC1 [SAG, 3-chloro-N-[(1r,4r)-4-(methylamino)cyclohexyl]-N-[3-(pyridin-4-yl)benzyl]benzo[b]thiophene-2-carboxamide, reference compound]		significantly reduced to less than half
TGFβ1: transforming growth factor beta 1		significantly reduced to less than half
EGF: epidermal growth factor (NSDSECPLSHDGYCLHDGVCMYIEALDKYACNCVVGYIGERCQYRDLKWWELR; Epidermal growth factor; UniProt P01133 971-1023, looked up)		significantly reduced to less than half

Source: US20260265696A1, “HUMAN IPSC DERIVED AMELOBLASTS AND USES THEREOF” (UNIVERSITY OF WASHINGTON, priority 2021, published 2026)
